Key:
[1] = biological target: T1, CCR2 (Homo sapiens, UniProt P41597); experiment: CCR2 receptor membrane binding assay (THP-1 membranes, 125I-MCP-1, SPA beads); settings: THP-1 cell membranes, 125I-MCP-1, 8 h; read-out: hKi [nM] (CCR2)
T1 construct: Membranes were prepared from THP-1 cells; endogenous in cells; host or cells: THP-1 (human acute monocytic leukaemia cells), membrane preparation
T1 sequence (P41597 1-360 isoform P41597-2): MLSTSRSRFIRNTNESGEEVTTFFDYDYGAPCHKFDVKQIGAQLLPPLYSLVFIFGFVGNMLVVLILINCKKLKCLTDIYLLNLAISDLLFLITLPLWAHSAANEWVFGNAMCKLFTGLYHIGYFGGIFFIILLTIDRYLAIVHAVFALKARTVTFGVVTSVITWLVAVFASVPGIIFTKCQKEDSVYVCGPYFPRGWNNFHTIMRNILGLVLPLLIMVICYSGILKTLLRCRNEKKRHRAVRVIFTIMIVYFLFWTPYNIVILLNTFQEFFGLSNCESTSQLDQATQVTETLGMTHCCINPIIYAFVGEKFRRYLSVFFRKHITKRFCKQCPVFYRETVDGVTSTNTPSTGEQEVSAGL
Procedure: The above exemplary substances have been tested for binding to CCR2 using a binding assay as outlined herein below:
THP-1 cells (human acute monocytic leukaemia cells) were cultured under standardized conditions at 37° C. and 5% CO2 in a humidified incubator. THP-1 cells were cultivated in RPMI 1640 medium (Gibco 21875) containing 1% MEM-NEAA (Gibso 11140) 2 mM L-glutamine, 1.5 g/L sodium bicarbonate, 4.5 g/L glucose, 10 mM HEPES and 1.0 mM sodium pyruvate, 90%; 10% fetal calf serum (FCS Gibco 10500-064).
Membranes were prepared from THP-1 cells. THP-1 cells were centrifuged at 300×g at 4° C. for 10 min. The cell pellet was resuspendet in Phosphate Buffer Saline (PBS, including 10 μM Pefabloc and a protease inhibitor mix ‘complete’, Boehringer Mannheim (1 tablet/50 ml)), to a concentration of […]. The membrane preparation was performed by disrupting the cells by nitrogen […] (at 50 bar, for 1 h) in a “Nitrogen Bombe” (Parr Instrument). Cell debris was removed by centrifugation (800×g at 4° C., 1 min). The supernatant was centrifuged at 80000×g, 4° C. for 30 min to sediment the cell membranes. Usually 50 mg of protein (Bradford assay) were yielded from 1×10E9 cells. The membranes were resuspendet in 25 mM HEPES, 25 mM MgCl2, 1 mM CaCl2, 10% Glycerine for storage in aliquots at −80° C. in 25 mM HEPES, 25 mM MgCl2, 1 mM CaCl2, 10% Glycerine and stored at −80° C.
Perkin Elmer NEX 332 Jod^125 MCP-1, Stock: 2200 Ci/mmol solved in 2000 μl assay buffer, stored at −20° C. THP-1 membrane were adjusted with 25 mM HEPES, pH 7.2; 5 mM MgCl2; 0.5 mM CaCl2; 0.2% BSA assay buffer to a concentration of 2.5 μg/15 μl. Amersham Biosciences PVT-WGA Beads (RPNQ0001) were adjusted with assay buffer to a concentration of 0.24 mg/30 μl. For preparation of the membrane-bead-suspension membranes and beads were incubated for 30 min at RT under rotation (60 rpm) with a ratio of 1:2. Test compounds dissolved in 100% DMSO to a concentration of 10 mM and are further diluted with 100% DMSO to 1 mM. All additional compound dilutions were obtained with assay buffer, final 1% DMSO. Compounds, membrane-bead-suspension and [^125]MCP-1 (ca. 25000 cpm/10 μl) were incubated. Bound radioactivity was determined by scintillation counter after 8 h. Determination of affinity of test compounds (dissociation constant hKi) is calculated by iterative fitting of experimental data using the “easy sys” program, which is based on law of mass action (Schittkowski K. (1994), Numerische Mathematik, Vol. 68, 129-142).

[2] = biological target: T2, human CCR5 (Homo sapiens, UniProt P51681); experiment: CCR5 receptor membrane binding assay (CHO (Gα16) human CCR5 membranes, [125I]RANTES, SPA beads); settings: 6 h, read-out: hKi [nM] (CCR5)
T2 construct: expressed in transfected cells; host or cells: CHO cells co-expressing Gα16, grown under puromycin and zeocin selection; membrane preparation
T2 sequence (P51681 whole entry): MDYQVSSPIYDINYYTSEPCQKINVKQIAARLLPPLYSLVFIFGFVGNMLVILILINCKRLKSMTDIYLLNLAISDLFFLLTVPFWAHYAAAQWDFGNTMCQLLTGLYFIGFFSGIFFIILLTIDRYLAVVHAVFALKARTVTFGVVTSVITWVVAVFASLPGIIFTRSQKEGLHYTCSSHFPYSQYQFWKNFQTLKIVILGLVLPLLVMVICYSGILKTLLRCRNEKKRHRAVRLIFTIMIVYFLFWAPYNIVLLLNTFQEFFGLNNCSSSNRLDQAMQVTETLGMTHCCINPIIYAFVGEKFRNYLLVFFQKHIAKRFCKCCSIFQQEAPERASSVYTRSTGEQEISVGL
Procedure: The above exemplary substances have been tested for binding to CCR5 using a binding assay as outlined herein below:
CHO, (Gα16) human CCR5 cells were cultured under standardized conditions at 37° C. and 5% CO2 in a humidified incubator. CHO (Gα16) human CCR5 cells were cultivated in Ham's F12 (Invitrogen; #31765068) supplemented with 10 µg/ml Puromycin (Invitrogen; #A11139-03), 200 µg/ml Zeocin (Invitrogen; #45-0003) and 10% FCS (Gibco; #10500-064).
Membranes were prepared from CHO (Gα16) human CCR5 cells. Cells were cultured on […] plates (Nunc; #166508) 2-3 days before membrane preparation (usually 80-100 plates to obtain 80 mg protein).
Cells were scraped off the plates with a big scraper and washed with 2×5 ml ice cold Phosphate Buffer Saline (PBS; Invitrogen; #14040-174). Cell suspension was collected in a glass bottle (on ice). Cell suspension was harvested at 1400 rpm and 4° C. for 10 min and washed in PBS. Cell pellet was resuspended in 40 ml PBS with protease inhibitor mix ‘complete’ (Roche; #11873580001; 1 tablet/50 ml).
For gentle cell disruption the membrane preparation was performed by using a homogenizer (potter). Cells were homogenized for 5-10 min.
Membranes were centrifuged at 1000 rpm and 4° C. for 5 min. Supernatant (=membrane) was harvested in a new falcon tube and remaining cell pellet homogenized again for 5-10 min with PBS with protease inhibitor mix and centrifuged. Collected supernatant was centrifuged at 40000 rpm and 4° C. for 30 min to sediment the cell membranes.
The membranes were resuspended in 25 mM HEPES, 25 mM MgCl2, 1 mM CaCl2, 10% Glycerine for storage in aliquots at −80° C. Membranes were diluted to a concentration of 5 mg/ml (Bradford Assay).
[^125I]RANTES, Stock: 1825 Ci/mmol, 25 μCi (Bio Trend #A3-AI-676) was solved in 1000 μl assay buffer (100 mM NaCl; 10 mM MgCl2; 50 mM Tris-HCl; 1 mM EDTA; 0.1% BSA, pH 7.6), stored at −20° C.
CHO (Gα16) human CCR5 membrane were solved on ice and adjusted with assay buffer to a concentration of 2.5 μg/15 μl.
Amersham Biosciences PVT-WGA Beads (GE Healthcare; #RPNQ0001) were adjusted with assay buffer to a concentration of 8 mg/ml. For preparation of the membrane-bead-suspension, membranes and beads were incubated for 30 min at RT under rotation with a ratio of 1:2.
Test compounds dissolved in 100% DMSO to a concentration of 10 mM and are further diluted with 100% DMSO to 1 mM. All additional compound dilutions were obtained with assay buffer, final 1% DMSO. 7 μl compound dilution, 45 μl membrane-bead-suspension and 10 μl [^125I]RANTES (ca. 20000 cpm/10 μl) were incubated at RT. Bound radioactivity was determined by scintillation counter after 6 h. Determination of affinity of test compounds (dissociation constant Ki) is calculated by iterative fitting of experimental data using the “easy sys” program, which is based on law of mass action (Schittkowski K. (1994), Numerische Mathematik, Vol. 68, 129-142).

SMILES | Ki [1] | Ki [2]
Cc1c(NC[C@H]2CCC[C@@H](c3ccccc3)C2)ncnc1C(=O)N1CCC(N2C[C@H]3C[C@@H](N(C)S(C)(=O)=O)C[C@H]3C2)CC1 [Example 11] | 0.8 nM | 15 nM
Cc1c(C(=O)N2CCC(N3C[C@H]4C[C@@H](N(C)S(C)(=O)=O)C[C@H]4C3)CC2)ncnc1N1CCc2ccc(C(F)(F)F)cc2C1 [Example 7] | 0.6 nM | 420 nM
Cc1c(Nc2ccc(Cl)c(Cl)c2)nc(C2CC2)nc1C(=O)N1CCC(N2CCO[C@H]3COCC[C@H]32)CC1 [Example 26] | 0.8 nM | 430 nM
Cc1ccc([C@@H]2CCC[C@H](CNc3ncnc(C(=O)N4CCC(N5CC6COCC6C5)CC4)c3C)O2)cc1 (stereo partly drawn) [Example 16] | 40 nM | 880 nM
Cc1c(Nc2cccc(C(F)(F)F)c2)ncnc1C(=O)N1CCC(N2CCO[C@H]3COCC[C@H]32)CC1 [Example 5] | 9 nM | 1460 nM
Cc1nc(Nc2ccc(Cl)c(Cl)c2)c(C)c(C(=O)N2CCC(N3CCO[C@H]4COCC[C@H]43)CC2)n1 [Example 25] | 3 nM | 470 nM
Cc1c(Nc2ccc(Cl)c(Cl)c2)ncnc1C(=O)N1CCC(N2C[C@H]3C[C@@H](N(C)S(C)(=O)=O)C[C@H]3C2)CC1 [Example 10] | 0.6 nM | 92 nM
Cc1c(Nc2ccc(Cl)c(Cl)c2)ncnc1C(=O)N1CCC(N2CC3COCC3C2)CC1 (stereo not drawn) [Example 18] | 24 nM | 930 nM
Cc1ccc([C@@H]2CCC[C@H](CNc3ncnc(C(=O)N4CCC(N5CC6CN(S(C)(=O)=O)CC6C5)CC4)c3C)O2)cc1 (stereo partly drawn) [Example 14] | 3 nM | 330 nM
Cc1c(NC[C@H]2CCC[C@@H](c3ccc(C(F)(F)F)cc3)O2)ncnc1C(=O)N1CCC(N2CC3COCC3C2)CC1 (stereo partly drawn) [Example 17] | 16 nM | 320 nM
Cc1c(C(=O)N2CCC(N3CCOC4COCCC43)CC2)ncnc1N1CCc2ccc(C(F)(F)F)cc2C1 (stereo not drawn) [Example 23] | 17 nM | 5820 nM
Cc1c(NC[C@H]2CCC[C@@H](c3ccc(C(F)(F)F)cc3)O2)ncnc1C(=O)N1CCC(N2CCO[C@H]3COCC[C@H]32)CC1 [Example 2] | 0.5 nM | 460 nM
Cc1c(NC[C@H]2CCC[C@@H](c3ccc(C(F)(F)F)cc3)O2)ncnc1C(=O)N1CCC(N2C[C@H]3C[C@@H](N(C)S(C)(=O)=O)C[C@H]3C2)CC1 [Example 9] | 0.2 nM | 21 nM
Cc1c(NCc2ccc(C(C)(C)C)cc2)nc(C(F)(F)F)nc1C(=O)N1CCC(N2CC3COCC3C2)CC1 (stereo not drawn) [Example 20] | 69 nM | 2610 nM

Second part, the compound after the results:

Ki [1] | Ki [2] | SMILES
7 nM | 65 nM | Cc1c(NC[C@H]2CCC[C@@H](c3ccccc3)C2)ncnc1C(=O)N1CCC(N2CC3COCC3C2)CC1 (stereo partly drawn) [Example 44]
26 nM | 1140 nM | Cc1c(NC[C@H]2CCC[C@@H](c3ccc(OC(F)(F)F)cc3)O2)ncnc1C(=O)N1CCC(N2CCO[C@@H]3COCC[C@H]32)CC1 (single isomer, unassigned) [Example 34]
7 nM | 1550 nM | COc1nc(Nc2cccc(C(F)(F)F)c2)c(C)c(C(=O)N2CCC(N3CCO[C@H]4COCC[C@H]43)CC2)n1 (single isomer, unassigned) [Example 36a]
0.9 nM | 390 nM | COc1nc(Nc2ccc(Cl)c(Cl)c2)c(C)c(C(=O)N2CCC(N3CCO[C@H]4COCC[C@H]43)CC2)n1 [Example 28]
2 nM | 460 nM | Cc1c(C(=O)N2CCC(N3CCO[C@@H]4COCC[C@@H]43)CC2)ncnc1N1COc2ccc(C(F)(F)F)cc2C1 (single isomer, unassigned) [Example 41]
1 nM | 160 nM | Cc1c(Nc2ccc(Cl)c(Cl)c2)nc(C2CC2)nc1C(=O)N1CCC(N2CCO[C@H]3COCC[C@H]32)CC1 (single isomer, unassigned) [Example 35a]
1 nM | 48 nM | Cc1c(NC[C@H]2CCC[C@@H](c3ccc(OC(F)(F)F)cc3)O2)ncnc1C(=O)N1CCC(N2CCO[C@H]3COCC[C@H]32)CC1 (single isomer, unassigned) [Example 33]
3 nM | 260 nM | Cc1nc(Nc2ccc(Cl)c(Cl)c2)c(C)c(C(=O)N2CCC(N3CCO[C@H]4COCC[C@H]43)CC2)n1 (single isomer, unassigned) [Example 38a]
42 nM | 2100 nM | COc1nc(Nc2cccc(C(F)(F)F)c2)c(C)c(C(=O)N2CCC(N3CCO[C@@H]4COCC[C@@H]43)CC2)n1 (single isomer, unassigned) [Example 36b]
9 nM | 1350 nM | Cc1c(Nc2ccc(Cl)c(Cl)c2)nc(C2CC2)nc1C(=O)N1CCC(N2CCO[C@@H]3COCC[C@@H]32)CC1 (single isomer, unassigned) [Example 35b]
9 nM | 1000 nM | Cc1nc(Nc2cccc(C(F)(F)F)c2)c(C)c(C(=O)N2CCC(N3CCO[C@H]4COCC[C@H]43)CC2)n1 [Example 30]
31 nM | – | Cc1c(Nc2cccc(C(F)(F)F)c2)nc(C2CC2)nc1C(=O)N1CCC(N2CCO[C@@H]3COCC[C@@H]32)CC1 (single isomer, unassigned) [Example 39b]
